Entries after “also recorded” stand apart in the source; their conditions may differ.
Tests used:
PPARδ = PPARδ gene expression in S-1-P treated human keratinocytes; format: cell-based; details: human keratinocytes treated with S-1-P, standard culture conditions
Method: Spingosine-1-phosphate methylates PPARδ promoter. Cutaneous ceramide is degraded to sphingosine by bacterial ceramidase. Sphingosine is phosphorylated to sphingosine-1 phosphate (S-1-P) which is a bioactive lipid and can epigenetically downregulate gene regulation. Thus, a plausible role of S-1-P in regulating PPARδ in our experimental systems was tested. In the porcine pre-clinical model of wound biofilm infection elevated levels of S-1-P was detected following PAwt, but not PAΔCer, infection. […] Under standard culture conditions when human keratinocytes were treated with the bioactive sphingolipid S-1-P, gene expression of PPARδ was blunted. To determine whether such downregulation of PPARδ was epigenetically regulated, CpG methylation of the PPARδ promoter was studied.

PPARδ promoter = experiment: Bisulfite sequencing of PPARδ promoter (CpG methylation); format: cell-based, human; details: HaCaT keratinocytes; S-1-P 5 μM, 48 hours
Method: The PCR products were gel extracted (GenElute Gel Extraction Kit, Sigma, cat #NA1111-1KT) and Sanger sequencing was done using ABI 3730 Genetic Analyzer. Analysis was done using Sequencher 5.4.5 (Gene Codes Corporation, MI). Results were confirmed by cloning the purified DNA into pGEM-T Easy Vector System II (Promega, cat #A1380), followed by sequencing.
Bisulfite conversion of DNA from HaCaT keratinocytes were transfected with Sphingosine-1-phosphate (5 μM, 48 hours) was performed using the Cells-to-CpG Bisulfite Conversion Kit (Thermo Fisher Scientific, part number: 4445555), as per manufacturer's protocol. The cells were lysed, and DNA was denatured using the denaturation reagent in a PCR tube at 50° C. for 10 min. Unmethylated cytosines were converted to uracil in the denatured DNA samples via treatment with conversion buffer containing bisulfite in a PCR reaction under following conditions: (1) 65° C. for 30 min, (2) 95° C. for 1.5 min, (3) 65° C. for 30 min, (4) 95° C. for 1.5 min, (5) 65° C. for 30 min, and (6) 4° C. up to 4 hr. This was followed by the removal of salts and desulfonation of the converted DNA in a binding column, a series of washing steps, and then elution of DNA. The converted DNA was stored at […] until further used.

DNMT3B = DNMT3B activity assay; format: cell-based; details: human keratinocytes; 5 μmol S-1-P, 48 h
Method: Human keratinocytes cells were treated with 5 μmol of Sphingosine-1-phosphate (Avanti) for 48 h. Cells were collected and DNMT3B activity was measured using EpiQuik DNMT3B Activity/Inhibitor Screening Assay Core Kit (EPIGENTEK) according to manufacturer's instructions and using recombinant DNMT3B protein, (ACTIVE MOTIF) as a positive control for the assay.

DNA methyl transferases = experiment: DNA methyl transferase expression in S-1-P treated HK; format: cell-based, human
Description: (§1) FIGS. 11A-11O illustrate additional experimental results. FIG. 11A: Vector map of PPARδ promoter luciferase reporter. FIGS. 11B-11C: PPARδ drives CerS3 expression. CerS3 expression in human keratinocytes (HK) treated with PPARδ agonist (GW501516, 1 μmol/ml) or antagonist (GSK0660, 1 μmol/ml) as measured by qPCR. Data presented as mean±SEM (n=5). FIGS. 11D-11F: Upregulation of DNA methyl transferases in S-1-P treated HK. Data presented as mean±SEM (n=8). FIGS. 11G-11J: Induction of histone deacetylases in S-1P treated HK. Data presented as mean±SEM (n=8). FIGS. 11K-11N) Other histone deacetylases in S-1P treated HK. […] Data presented as mean±SEM, (n=8). FIG. 11O: miR-106b expression in HK treated with S-1-P (5 μmol/ml). Data presented as mean±SEM (n=8).

histone deacetylases = experiment: Histone deacetylase expression in S-1-P treated HK; format: cell-based, human
Description: as §1

miR-106b = miR-106b expression in HK treated with S-1-P; format: cell-based, human; details: HK treated with S-1-P 5 μmol/ml
Description: as §1

CCCCCCCCCCCCC/C=C/[C@@H](O)[C@@H](N)COP(=O)(O)O [S-1-P, sphingosine-1 phosphate]
gene expression of PPARδ (PPARδ): blunted; also recorded: epigenetically silenced
PPARδ promoter methylation (PPARδ promoter): caused promoter methylation
catalytic activity of DNA methyl transferase 3B (DNMT3B) (DNMT3B): augmented catalytic activity
DNA methyl transferases expression (FIGS. 11D-11F) (DNA methyl transferases): Upregulation
histone deacetylases expression (FIGS. 11G-11J) (histone deacetylases): Induction
other histone deacetylases expression (FIGS. 11K-11N) (histone deacetylases): No significant changes
miR-106b expression (miR-106b): Induction

— patent US20240358671A1, “COMPOSITIONS AND METHODS TO TREAT SKIN DISORDERS” (THE TRUSTEES OF INDIANA UNIVERSITY, priority 2021, published 2024)
